Test results: patent publication US20080091140A1, “Cardiac Reperfusion Methods and Devices” (priority 2006, published 2008)
Marks after values point to notes of the source that are not given here.

Columns and labels:
Assay type in all cases: in vivo, Female juvenile domestic swine
[1] = tested on: acute regional myocardial ischemia and reperfusion (LAD occlusion); experiment: Echocardiographic LV ejection fraction
Caspase 3 = experiment: Western blotting of infarct border area: Caspase 3; conditions: infarct border area after 2 h reperfusion, p=0.007 vs saline
Text: Interventional Coronary and Surgical Procedures: A 6F Hockey stick guide catheter cannulated the left main coronary artery. The TGT wire, flushed with heparin, was positioned in the distal left anterior descending (LAD) artery. After a midline sternotomy acute regional myocardial ischemia was induced by occluding the mid portion of the LAD with a surgical suture. Fluoroscopy ensured the suture was above the infusion ports of the TGT wire with distal TIMI 0 flow. Lidocaine was given as a bolus and infusion at the onset of ischemia and for the remainder of the experiment. TGT injection was performed at the end of a 30 minute ischemic period after which the suture was removed to allow reperfusion. Restoration of TIMI 3 flow was documented by cine-angiography. Animals were sacrificed after 2 hours of reperfusion and the hearts were harvested for immunohistochemistry. Western Blotting: After cardiac harvest the infarct border area was immediately frozen in liquid nitrogen. […] Supernatant protein concentration was measured using a BCA assay kit (Pierce Laboratories). […] After 3 TBST washings the immunocomplexes were developed using an enhanced HPO/luminol chemiluminescence reaction, and recorded photographically (Hyper film ECL; Amersham) by 10 s to 3 min exposure. […] Quantification was performed using scanning densitometry with image J software.

[2] = tested on: acute regional myocardial ischemia and reperfusion (LAD occlusion); experiment: Hemodynamic assessment (rate pressure product) in swine LAD ischemia-reperfusion with Trans Guide wire Therapy; conditions: for rate pressure product (RPP), Pre-sacrifice: after 2 h reperfusion, chloramphenicol 10 mg TGT plus 40 mg/Kg IV just prior to reperfusion, p=0.02 vs saline
Experimental: (§1) Methods: Female juvenile pigs (n=14) were used. All animals received 250 mg of aspirin and 100 U/Kg of heparin IV. Tying the mid Left Anterior Descending Artery (“LAD”) after distal TGT (Trans Guide wire Therapy) wire placement induced acute myocardial ischemia. The TGT system consisted of a 0.014 inch nitinol torquable guide wire and removable stopcock. The distal 30 mm tip was flexible and radio-opaque. Immediately proximal to the tip were delivery holes to facilitate TGT delivery. TGT was delivered after 30 minutes of ischemia. The distal coronary vascular bed was visualized by injection with radiographic contrast (n=2) and Evans blue (n=2). […] Suture removal allowed 2 hours of reperfusion prior to sacrifice. Hemodynamics expressed as the heart rate blood pressure product (RPP) was assessed continuously. Echocardiographic LV ejection fraction (LVEF) was measured at baseline, end of ischemia (pre-TGT) and pre-sacrifice. Device success was defined as successful TGT delivery.
Animal Preparation: Female juvenile domestic swine, weight 30-50 kg, were studied. […] Anaesthesia was induced with an intramuscular injection of ketamine (20 mg/kg) followed by inhaled isoflurane (0.5-2.0%). After general anaesthesia the femoral artery was cannulated. A pulmonary artery cannula was positioned via the right internal jugular vein. All animals received 250 mg of IV aspirin and 100 U/Kg units of heparin intravenously to achieve an ACT above 250 s.
(§2) Interventional Coronary and Surgical Procedures: A 6F Hockey stick guide catheter cannulated the left main coronary artery. The TGT wire, flushed with heparin, was positioned in the distal left anterior descending (LAD) artery. After a midline sternotomy acute regional myocardial ischemia was induced by occluding the mid portion of the LAD with a surgical suture. Fluoroscopy ensured the suture was above the infusion ports of the TGT wire with distal TIMI 0 flow. Lidocaine was given as a bolus and infusion at the onset of ischemia and for the remainder of the experiment. TGT injection was performed at the end of a 30 minute ischemic period after which the suture was removed to allow reperfusion. Restoration of TIMI 3 flow was documented by cine-angiography. Animals were sacrificed after 2 hours of reperfusion and the hearts were harvested for immunohistochemistry.
Hemodynamic Assessment: There was continuous measurement of hemodynamic parameters. Cardiac output was measured immediately before and after ischemia and pre-sacrifice. Hemodynamic stability and contractility were supported medically by IV dopamine, and epinephrine to maintain MAP above 50 mmg. Boluses of atropine (1 mg) and lidocaine (100 mg) were given as appropriate for treatment of arrhythmias. […] Each administration of these drugs was recorded as 1 arbitrary unit. […]

[3] = tested on: acute regional myocardial ischemia and reperfusion (LAD occlusion); experiment: Survival of the reperfusion period; conditions: of 5 chloramphenicol TGT treated animals, to sacrifice at 2 h
Experimental: as §1
Interventional Coronary and Surgical Procedures: A 6F Hockey stick guide catheter cannulated the left main coronary artery. The TGT wire, flushed with heparin, was positioned in the distal left anterior descending (LAD) artery. After a midline sternotomy acute regional myocardial ischemia was induced by occluding the mid portion of the LAD with a surgical suture. […]

[4] = tested on: acute regional myocardial ischemia and reperfusion (LAD occlusion); experiment: Supportive drug therapy required during ischemia-reperfusion (arbitrary units); conditions: chloramphenicol 10 mg TGT plus 40 mg/Kg IV
Experimental: as §1, §2
Hemodynamic Assessment: There was continuous measurement of hemodynamic parameters. Cardiac output was measured immediately before and after ischemia and pre-sacrifice. Hemodynamic stability and contractility were supported medically by IV dopamine, and epinephrine to maintain MAP above 50 mmg. Boluses of atropine (1 mg) and lidocaine (100 mg) were given as appropriate for treatment of arrhythmias. IV calcium and bicarbonate were given in appropriate doses during cardiopulmonary resuscitation. Each administration of these drugs was recorded as 1 arbitrary unit.
The latter was prepared as 10 mg in 0.5 cc of saline for TGT in addition to 40 mg/Kg IV. Injections were performed just prior to reperfusion.

apoptosis = experiment: TUNEL staining for apoptosis in heart tissue sections; conditions: heart tissue after 2 h reperfusion; non-discriminatory vs saline
[5] = each administration recorded as 1 arbitrary unit, group sum

SMILES: O=C(N[C@H](CO)[C@H](O)c1ccc([N+](=O)[O-])cc1)C(Cl)Cl [chloramphenicol]
- LV ejection fraction, end of ischemia ([1]; after 30 minute ischemia, pre-TGT, chloramphenicol TGT group): 27.3%+/−3.8
- LV ejection fraction, pre-sacrifice (after reperfusion) ([1]; after 2 h reperfusion, chloramphenicol 10 mg TGT plus 40 mg/Kg IV, p<0.001 vs end of ischemia): 43.3%+/−11.4
- caspase-3 band intensity by densitometry (Caspase 3): 346±110
- rate pressure product (RPP), Pre-sacrifice [2]: 3720.0 (+/−510.2)
- rate pressure product (RPP), Pre-sacrifice ([2]; listed as Chloramphenicol): 3720.0 +/− 510.2*
- rate pressure product (RPP), Baseline ([2]; baseline, before ischemia and before TGT, chloramphenicol TGT group (n=5)): 3980.8 +/− 594.5
- rate pressure product (RPP), End of ischemia ([2]; end of 30 min ischemia, pre-TGT, chloramphenicol TGT group (n=5)): 2969.5 +/− 687.2
- animals that survived the period of reperfusion [3]: 5
- supportive therapy: Atropine [4, 5]: 2.5 arbitrary units
- supportive therapy: Bicarbonate [4, 5]: 1 arbitrary units
- supportive therapy: Dopamine [4, 5]: 1 arbitrary units
- supportive therapy: Epinephrine [4, 5]: 1 arbitrary units
- supportive therapy: Lidocaine [4, 5]: 4.5 arbitrary units
- supportive therapy: calcium [4, 5]: 0 arbitrary units
- supportive therapy / intravenous inotrope support, mean ([4]; mean (+/-), p=0.028 vs saline): 1.67 (+/−1.6) arbitrary units
- supportive therapy: Total ([4]; sum over all support drugs): 10 arbitrary units
- TUNEL staining (apoptosis): weakly positive
